Assay results published in patent US8680012B2, “4-phenyl-pyrane-3,5-diones,4-phenyl-thiopyrane-3,6-diones and cyclohexanetriones as novel herbicides” (Syngenta Crop Protection LLC, priority 2006, dated 2014).

Tests used:
Type in all cases: in vivo
[1] = tested on: Alopecurus myosuroides (ALOMY); assay: Example A pre-emergence herbicidal activity, glasshouse pot test; conditions: 480 h, rate 250 g/ha, evaluated 20 days after spraying, read-out: Pre-emergence activity ALOMY (100=total damage to plant; 0=no damage to plant)
Description: (§1) Seeds of a variety of test species were sown in standard soil in pots. After cultivation for one day (pre-emergence) or after 10 days cultivation (post-emergence) under controlled conditions in a glasshouse, the plants were sprayed with an aqueous spray solution derived from the formulation of the technical active ingredient in 0.6 ml acetone and 45 ml formulation solution containing 10.6% Emulsogen EL (Registry number 61791-12-6), 42.2% N-methylpyrrolidone, 42.2% dipropylene glycol monomethyl ether (Registry number 34590-94-8) and 0.2% X-77 (Registry number 11097-66-8). The test plants were then grown in a greenhouse under optimum conditions until, 15 days later for post-emergence and 20 days for pre-emergence, the test was evaluated (100=total damage to plant; 0=no damage to plant).
(§2) Alopecurus myosuroides (ALOMY), Avena fatua (AVEFA), Lolium perenne (LOLPE), Setaria faberi (SETFA), Digitaria sanguinalis (DIGSA), Echinochloa crus-galli (ECHCG)

Avena fatua (AVEFA) [2] = assay: as above; conditions: 480 h, rate 250 g/ha, evaluated 20 days after spraying, read-out: Pre-emergence activity AVEFA (100=total damage to plant; 0=no damage to plant)
Description: as §1, §2

[3] = tested on: Digitaria sanguinalis (DIGSA); assay: as above; conditions: 480 h, rate 250 g/ha, evaluated 20 days after spraying, read-out: Pre-emergence activity DIGSA (100=total damage to plant; 0=no damage to plant)
Description: as §1, §2

[4] = tested on: Echinochloa crus-galli (ECHCG); assay: as above; conditions: 480 h, rate 250 g/ha, evaluated 20 days after spraying, read-out: Pre-emergence activity ECHCG (100=total damage to plant; 0=no damage to plant)
Description: as §1, §2

Lolium perenne (LOLPE) [5] = assay: as above; conditions: 480 h, rate 250 g/ha, evaluated 20 days after spraying, read-out: Pre-emergence activity LOLPE (100=total damage to plant; 0=no damage to plant)
Description: as §1, §2

Setaria faberi (SETFA) [6] = assay: as above; conditions: 480 h, rate 250 g/ha, evaluated 20 days after spraying, read-out: Pre-emergence activity SETFA (100=total damage to plant; 0=no damage to plant)
Description: as §1, §2

[7] = tested on: Alopecurus myosuroides (ALOMY); assay: Example A post-emergence herbicidal activity, glasshouse pot test; conditions: 360 h, rate 125 g/ha, evaluated 15 days after spraying, read-out: Post-emergence activity ALOMY (100=total damage to plant; 0=no damage to plant)
Description: as §1, §2

Avena fatua (AVEFA) [8] = assay: as above; conditions: 360 h, rate 125 g/ha, evaluated 15 days after spraying, read-out: Post-emergence activity AVEFA (100=total damage to plant; 0=no damage to plant)
Description: as §1, §2

[9] = tested on: Digitaria sanguinalis (DIGSA); assay: as above; conditions: 360 h, rate 125 g/ha, evaluated 15 days after spraying, read-out: Post-emergence activity DIGSA (100=total damage to plant; 0=no damage to plant)
Description: as §1, §2

[10] = tested on: Echinochloa crus-galli (ECHCG); assay: as above; conditions: 360 h, rate 125 g/ha, evaluated 15 days after spraying, read-out: Post-emergence activity ECHCG (100=total damage to plant; 0=no damage to plant)
Description: as §1, §2

Lolium perenne (LOLPE) [11] = assay: as above; conditions: 360 h, rate 125 g/ha, evaluated 15 days after spraying, read-out: Post-emergence activity LOLPE (100=total damage to plant; 0=no damage to plant)
Description: as §1, §2

Setaria faberi (SETFA) [12] = assay: as above; conditions: 360 h, rate 125 g/ha, evaluated 15 days after spraying, read-out: Post-emergence activity SETFA (100=total damage to plant; 0=no damage to plant)
Description: as §1, §2

Cc1ccc(-c2ccc(C(F)(F)F)cc2)cc1C1=C(O)C(C)(C)OC(C)(C)C1=O [Compound A-10]
pest or weed control at 250 g/ha [1]: 40%
pest or weed control at 250 g/ha (Avena fatua (AVEFA) [2]): 50%
pest or weed control at 250 g/ha [3]: 100%
pest or weed control at 250 g/ha [4]: 100%
pest or weed control at 250 g/ha (Lolium perenne (LOLPE) [5]): 60%
pest or weed control at 250 g/ha (Setaria faberi (SETFA) [6]): 100%
pest or weed control at 125 g/ha [7]: 30%
pest or weed control at 125 g/ha (Avena fatua (AVEFA) [8]): 20%
pest or weed control at 125 g/ha [9]: 100%
pest or weed control at 125 g/ha [10]: 100%
pest or weed control at 125 g/ha (Lolium perenne (LOLPE) [11]): 0%
pest or weed control at 125 g/ha (Setaria faberi (SETFA) [12]): 50%

CCc1ccc(-c2ccc(Cl)cc2)cc1C1=C(O)C(C)(CC)OC(C)(CC)C1=O (stereo not drawn) [Compound A-35]
pest or weed control at 250 g/ha [1]: 70%
pest or weed control at 250 g/ha (Avena fatua (AVEFA) [2]): 70%
pest or weed control at 250 g/ha [3]: 80%
pest or weed control at 250 g/ha [4]: 100%
pest or weed control at 250 g/ha (Lolium perenne (LOLPE) [5]): 80%
pest or weed control at 250 g/ha (Setaria faberi (SETFA) [6]): 100%
pest or weed control at 125 g/ha [7]: 80%
pest or weed control at 125 g/ha (Avena fatua (AVEFA) [8]): 50%
pest or weed control at 125 g/ha [9]: 80%
pest or weed control at 125 g/ha [10]: 100%
pest or weed control at 125 g/ha (Lolium perenne (LOLPE) [11]): 70%
pest or weed control at 125 g/ha (Setaria faberi (SETFA) [12]): 80%

CCc1ccc(-c2ccc(Cl)cc2)cc1C1=C(O)C2(CCCC2)OCC1=O [Compound A-36]
pest or weed control at 250 g/ha [1]: 60%
pest or weed control at 250 g/ha (Avena fatua (AVEFA) [2]): 60%
pest or weed control at 250 g/ha [3]: 100%
pest or weed control at 250 g/ha [4]: 100%
pest or weed control at 250 g/ha (Lolium perenne (LOLPE) [5]): 80%
pest or weed control at 250 g/ha (Setaria faberi (SETFA) [6]): 90%
pest or weed control at 125 g/ha [7]: 40%
pest or weed control at 125 g/ha (Avena fatua (AVEFA) [8]): 0%
pest or weed control at 125 g/ha [9]: 70%
pest or weed control at 125 g/ha [10]: 70%
pest or weed control at 125 g/ha (Lolium perenne (LOLPE) [11]): 70%
pest or weed control at 125 g/ha (Setaria faberi (SETFA) [12]): 60%

Cc1ccc(-c2ccc(Cl)cc2)cc1C1=C(O)[C@@]2(C)CC[C@](C)(O2)C1=O [Compound A-40]
pest or weed control at 250 g/ha [1]: 30%
pest or weed control at 250 g/ha (Avena fatua (AVEFA) [2]): 10%
pest or weed control at 250 g/ha [3]: 70%
pest or weed control at 250 g/ha [4]: 70%
pest or weed control at 250 g/ha (Lolium perenne (LOLPE) [5]): 20%
pest or weed control at 250 g/ha (Setaria faberi (SETFA) [6]): 70%
pest or weed control at 125 g/ha [7]: 70%
pest or weed control at 125 g/ha (Avena fatua (AVEFA) [8]): 60%
pest or weed control at 125 g/ha [9]: 70%
pest or weed control at 125 g/ha [10]: 100%
pest or weed control at 125 g/ha (Lolium perenne (LOLPE) [11]): 60%
pest or weed control at 125 g/ha (Setaria faberi (SETFA) [12]): 70%

CCc1ccc(-c2ccc(Cl)c(Cl)c2)cc1C1=C(O)C(C)(C)OC(C)(C)C1=O [Compound A-42]
pest or weed control at 250 g/ha [1]: 100%
pest or weed control at 250 g/ha (Avena fatua (AVEFA) [2]): 30%
pest or weed control at 250 g/ha [3]: 100%
pest or weed control at 250 g/ha [4]: 80%
pest or weed control at 250 g/ha (Lolium perenne (LOLPE) [5]): 50%
pest or weed control at 250 g/ha (Setaria faberi (SETFA) [6]): 100%
pest or weed control at 125 g/ha [7]: 80%
pest or weed control at 125 g/ha (Avena fatua (AVEFA) [8]): 90%
pest or weed control at 125 g/ha [9]: 100%
pest or weed control at 125 g/ha [10]: 100%
pest or weed control at 125 g/ha (Lolium perenne (LOLPE) [11]): 70%
pest or weed control at 125 g/ha (Setaria faberi (SETFA) [12]): 100%

CCc1ccc(-c2ccc(Cl)c(F)c2)cc1C1=C(O)C(C)(C)OC(C)(C)C1=O [Compound A-43]
pest or weed control at 250 g/ha [1]: 80%
pest or weed control at 250 g/ha (Avena fatua (AVEFA) [2]): 90%
pest or weed control at 250 g/ha [3]: 100%
pest or weed control at 250 g/ha [4]: 100%
pest or weed control at 250 g/ha (Lolium perenne (LOLPE) [5]): 80%
pest or weed control at 250 g/ha (Setaria faberi (SETFA) [6]): 100%
pest or weed control at 125 g/ha [7]: 80%
pest or weed control at 125 g/ha (Avena fatua (AVEFA) [8]): 90%
pest or weed control at 125 g/ha [9]: 100%
pest or weed control at 125 g/ha [10]: 100%
pest or weed control at 125 g/ha (Lolium perenne (LOLPE) [11]): 80%
pest or weed control at 125 g/ha (Setaria faberi (SETFA) [12]): 100%

CCc1ccc(-c2ccc(Cl)c(C)c2)cc1C1=C(O)C(C)(C)OC(C)(C)C1=O [Compound A-44]
pest or weed control at 250 g/ha [1]: 60%
pest or weed control at 250 g/ha (Avena fatua (AVEFA) [2]): 20%
pest or weed control at 250 g/ha [3]: 100%
pest or weed control at 250 g/ha [4]: 70%
pest or weed control at 250 g/ha (Lolium perenne (LOLPE) [5]): 80%
pest or weed control at 250 g/ha (Setaria faberi (SETFA) [6]): 50%
pest or weed control at 125 g/ha [7]: 40%
pest or weed control at 125 g/ha (Avena fatua (AVEFA) [8]): 60%
pest or weed control at 125 g/ha [9]: 70%
pest or weed control at 125 g/ha [10]: 100%
pest or weed control at 125 g/ha (Lolium perenne (LOLPE) [11]): 60%
pest or weed control at 125 g/ha (Setaria faberi (SETFA) [12]): 30%
